Assay results reported in PubChem BioAssay AID2286 (Southern Research Specialized Biocontainment Screening …, 2010).
Calls of active or inactive are those of the source.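 Rule for the calls: active = minimum cell viability of 80% or lower across the dose range, counted as toxic; inactive = minimum cell viability above 80%.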

Test: MAGI-CCR5 and HeLa-R5-16 cytotoxicity, dose response, cytotoxicity control for HIV-1 fusion inhibitor project, cell-based, MAGI and MAGI-HeLa co-culture (AID 2286);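 note: cells exposed to compound for at least 64 h before ATP readout; 100% = median of DMSO vehicle wells with no ATP signal meaning 0%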
Conditions: MAGI-CCR5 cells viability, CellTiter-Glo ATP luminescence; for minimum viability: measured here: MAGI minimum viability across doses
[1] = MAGI-HeLa co-culture viability, at 50 µM, stronger effect = lower value
[2] = at 12.5 µM, stronger effect = lower value
[3] = at 3.13 µM, stronger effect = lower value
[4] = at 1.56 µM, stronger effect = lower value

In the case of `N=C1/C(=C\c2ccc(-c3cccc(C(=O)O)c3)o2)C(=O)N=C2SC=C(c3ccccc3)N12`, the viability [1] is reported as 103%, the viability (at 50 µM (top of the series)) is reported as 81% (inactive) and the minimum viability [2] is reported as 80.3%.

With `Cc1noc(NS(=O)(=O)c2ccc(NC(=O)Nc3ccc(Cl)c(Cl)c3)cc2)c1C` the viability [1] was 120%, the viability (at 50 µM (top of the series)) was 95.5% (inactive) and the minimum viability [2] was 93%.

In the case of `O=C(CCN1C(=O)/C(=C\c2ccccc2F)SC1=S)Nc1ccc(C(=O)O)c(O)c1`, the viability [1] is reported as 114%, the viability (at 50 µM (top of the series)) is reported as 93.9% (inactive) and the minimum viability [3] is reported as 85.5%.

With `O=C1N=c2ccc(Br)cc2=C1c1sc(=S)n(NS(=O)(=O)c2ccccc2)c1O` the viability [1] was 89.2%, the viability (at 50 µM (top of the series)) was 102% (inactive) and the minimum viability [3] was 98.5%.

In the case of `Cc1cc(N2C(=O)C(O)=C(C(=O)c3cc4ccccc4o3)C2c2ccc(Cl)cc2)no1` (centres undefined), the viability [1] is reported as 123%, the viability (at 50 µM (top of the series)) is reported as 83.2% (inactive) and the minimum viability (at 50 µM, stronger effect = lower value) is reported as 83.2%.

In the case of `CCOC(=O)c1sc(N2C(=O)C(O)=C(C(=O)c3ccco3)C2c2ccc([N+](=O)[O-])cc2)nc1C` (centres undefined), the viability [1] is reported as 124%, the viability (at 50 µM (top of the series)) is reported as 80.3% (inactive) and the minimum viability (at 50 µM, stronger effect = lower value) is reported as 80.3%.

In the case of `O=C(O)c1cc(NC(=O)c2ccc(Br)cc2)cc(NC(=O)c2ccc(Br)cc2)c1`, the viability [1] is reported as 118%, the viability (at 50 µM (top of the series)) is reported as 103% (inactive) and the minimum viability [3] is reported as 99.1%.

With `N#Cc1c(-c2ccccc2)nc(SCC(=O)N2c3ccccc3Sc3ccccc32)[nH]c1=O` the viability [1] was 103%, the viability (at 50 µM (top of the series)) was 85.5% (inactive) and the minimum viability [4] was 83.6%.

With `COc1cc(/C=C2\C(=N)N3N=C(S(C)(=O)=O)SC3=NC2=O)cc(OC)c1OCCOc1ccc(C)cc1` the viability [1] was 111%, the viability (at 50 µM (top of the series)) was 101% (inactive) and the minimum viability (at 25 µM, stronger effect = lower value) was 98.3%.

For `COc1ccc(OC)c(N2C(=O)/C(=C/c3ccco3)C(=O)NC2=S)c1`, the viability [1] was 90.2%, the viability (at 50 µM (top of the series)) was 94.8% (inactive) and the minimum viability (at 6.25 µM, stronger effect = lower value) was 83.8%.

For `COc1cc(/C=C2\S/C(=N/S(=O)(=O)c3ccc(C)cc3)NC2=O)c([N+](=O)[O-])cc1OC`, the viability [1] was 98.5%, the viability (at 50 µM (top of the series)) was 98.6% (inactive) and the minimum viability (at 50 µM, stronger effect = lower value) was 98.6%.

For `O=C(O)c1cccc(-n2cccc2/C=C2/NC(=O)N(c3ccc(Cl)cc3)C2=O)c1`, the viability [1] was 112%, the viability (at 50 µM (top of the series)) was 106% (inactive) and the minimum viability [4] was 97.5%.

With `CCOc1ccc2nc(NC(=O)CSc3nc(-c4ccccc4)c(C#N)c(=O)[nH]3)sc2c1` the viability [1] was 125%, the viability (at 50 µM (top of the series)) was 105% (inactive) and the minimum viability (at 0.78 µM, stronger effect = lower value) was 92.7%.

For `Cc1cn2c(N)c(C=C3C=C(Cl)C(=O)C(Cl)=C3)c(=O)nc2s1`, the viability [1] was 105%, the viability (at 50 µM (top of the series)) was 83.9% (inactive) and the minimum viability (at 25 µM, stronger effect = lower value) was 81.8%.

In the case of `COc1cc(/C=N/Nc2ccc(Cl)c(C(=O)O)c2)ccc1OC(=O)c1ccc(F)cc1`, the viability [1] is reported as 103%, the viability (at 50 µM (top of the series)) is reported as 89.8% (inactive) and the minimum viability (at 50 µM, stronger effect = lower value) is reported as 89.8%.

In the case of `COc1ccc(NC(=O)c2c[nH]n3c(=O)cc(C4CCN(C(=O)OC(C)(C)C)CC4)nc23)cc1Cl`, the viability [1] is reported as 94.3%, the viability (at 50 µM (top of the series)) is reported as 88.3% (inactive) and the minimum viability (at 50 µM, stronger effect = lower value) is reported as 88.3%.

In the case of `O=C(O)c1ccc(-c2ccc(/C=C3\NC(=O)N(Cc4ccc(Cl)cc4)C3=O)o2)cc1Cl`, the viability [1] is reported as 102%, the viability (at 50 µM (top of the series)) is reported as 107% (inactive) and the minimum viability [3] is reported as 98.2%.

In the case of `CCOC(=O)C1=C(C)N=c2s/c(=C\c3ccc(OCC(=O)O)c(OC)c3)c(=O)n2C1c1ccc(OC)cc1` (centres undefined), the viability [1] is reported as 107%, the viability (at 50 µM (top of the series)) is reported as 97.1% (inactive) and the minimum viability [4] is reported as 88%.

With `CCOc1ccc(NC(=NCc2ccc3c(c2)OCO3)SC2CC(=O)N(c3ccc(C(=O)O)cc3)C2=O)cc1` (centres undefined) the viability [1] was 81.3%, the viability (at 25 µM (top of the series)) was 84.3% (inactive) and the minimum viability (at 25 µM, stronger effect = lower value) was 84.3%.

For `O=C(O)CSc1ncnc2c1sc1nc(-c3ccccc3)c3c(c12)CCC3`, the viability [1] was 111%, the viability (at 50 µM (top of the series)) was 98.6% (inactive) and the minimum viability [2] was 92.4%.

`Cc1cc(/C=c2\sc3nc4ccccc4n3c2=O)c(C)n1-c1ccc(C(=O)O)cc1` showed a viability [1] of 89% and a minimum viability (at 50 µM, stronger effect = lower value) of 59.4%.

For `N#Cc1c(-c2ccccc2)nc(SCc2ccc(Cl)cc2)[nH]c1=O`, the viability [1] was 113%, the viability (at 50 µM (top of the series)) was 86.1% (inactive) and the minimum viability (at 50 µM, stronger effect = lower value) was 86.1%.

In the case of `Cc1cc(/C=C2/C(=N)N3C(=NC2=O)SN=C3S(C)(=O)=O)c(C)n1-c1ccccc1`, the viability [1] is reported as 116%, the viability (at 50 µM (top of the series)) is reported as 104% (inactive) and the minimum viability (at 0.2 µM, stronger effect = lower value) is reported as 101%.

For `O=C(O)CSCC(=O)N(Cc1ccccc1)c1nc(-c2ccccc2)c(-c2ccccc2)s1`, the viability [1] was 121%, the viability (at 50 µM (top of the series)) was 89% (inactive) and the minimum viability (at 50 µM, stronger effect = lower value) was 89%.

In the case of `Cc1cccc(S(=O)(=O)Nc2nc3ccccc3nc2Nc2cccc(C(=O)O)c2)c1`, the viability [1] is reported as 100%, the viability (at 50 µM (top of the series)) is reported as 88.6% (inactive) and the minimum viability (at 50 µM, stronger effect = lower value) is reported as 88.6%.
